ChEMBL document CHEMBL1201862, “PubChem BioAssay data set” (2004)
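Interpolation was linear, between the two tested concentrations surrounding the appropriate level; five concentrations were tested over 48 hours in 96-well plates. The concentration for 50% growth inhibition is given as GI50.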 Activity calls are given as the source filed them. No stated cut-off is given here; in the data, active = GI50 up to about 1.1 µM and inactive = higher.

Assays:
Assay in all cases: growth of human tumour cells (NCI), 48 h
786-0 = tested on: 786-0
A549 = tested on: A549
ACHN = tested on: ACHN
BT-549 = tested on: BT-549
CAKI-1 = tested on: CAKI-1
CCRF-CEM = tested on: CCRF-CEM
COLO 205 = tested on: COLO 205
DU-145 = tested on: DU-145
EKVX = tested on: EKVX
HCC 2998 = tested on: HCC 2998
HCT-116 = tested on: HCT-116
HCT-15 = tested on: HCT-15
HL-60 = tested on: HL-60
HOP-62 = tested on: HOP-62
HOP-92 = tested on: HOP-92
HT-29 = tested on: HT-29
Hs-578T = tested on: Hs-578T
IGROV-1 = tested on: IGROV-1
K562 = tested on: K562
KM12 = tested on: KM12
LOX IMVI = tested on: LOX IMVI
M14 = tested on: M14
MCF7 = tested on: MCF7
MDA-MB-231 = tested on: MDA-MB-231
MDA-MB-435 = tested on: MDA-MB-435
MDA-N = tested on: MDA-N
MOLT-4 = tested on: MOLT-4
NCI-H226 = tested on: NCI-H226
NCI-H23 = tested on: NCI-H23
NCI-H460 = tested on: NCI-H460
NCI/ADR-RES = tested on: NCI/ADR-RES
OVCAR-3 = tested on: OVCAR-3
OVCAR-4 = tested on: OVCAR-4
OVCAR-5 = tested on: OVCAR-5
OVCAR-8 = tested on: OVCAR-8
PC-3 = tested on: PC-3
RPMI-8226 = tested on: RPMI-8226
RXF 393 = tested on: RXF 393
SF-268 = tested on: SF-268
SF-295 = tested on: SF-295
SF-539 = tested on: SF-539
SK-MEL-28 = tested on: SK-MEL-28
SK-MEL-2 = tested on: SK-MEL-2
SK-OV-3 = tested on: SK-OV-3
SN12C = tested on: SN12C
SNB-19 = tested on: SNB-19
SNB-75 = tested on: SNB-75
SR = tested on: SR
SW-620 = tested on: SW-620
T47D = tested on: T47D
TK-10 = tested on: TK-10
U-251 = tested on: U-251
UACC-257 = tested on: UACC-257
UACC-62 = tested on: UACC-62
UO-31 = tested on: UO-31
A498 = tested on: A498
Malme-3M = tested on: Malme-3M
NCI-H522 = tested on: NCI-H522
SK-MEL-5 = tested on: SK-MEL-5

Measured: GI50

NC(=O)NCCCC(NC(=O)OCCCCn1ccc(=O)[nH]c1=O)C(=O)O (stereo not drawn)
> 100 µM: HCT-15
inactive: 786-0 > 100 µM | A549 > 100 µM | ACHN > 100 µM | BT-549 > 100 µM | CAKI-1 > 100 µM | CCRF-CEM > 100 µM | COLO 205 > 100 µM | DU-145 > 100 µM | EKVX > 100 µM | HCC 2998 > 100 µM | HCT-116 > 100 µM | HL-60 > 100 µM | HOP-62 > 100 µM | HOP-92 > 100 µM | HT-29 > 100 µM | Hs-578T > 100 µM | IGROV-1 > 100 µM | K562 > 100 µM | KM12 > 100 µM | LOX IMVI > 100 µM | M14 > 100 µM | MCF7 > 100 µM | MDA-MB-231 > 100 µM | MDA-MB-435 > 100 µM | MDA-N > 100 µM | MOLT-4 > 100 µM | NCI-H226 > 100 µM | NCI-H23 > 100 µM | NCI-H460 > 100 µM | NCI/ADR-RES > 100 µM | OVCAR-3 > 100 µM | OVCAR-4 > 100 µM | OVCAR-5 > 100 µM | OVCAR-8 > 100 µM | PC-3 > 100 µM | RPMI-8226 > 100 µM | RXF 393 > 100 µM | SF-268 > 100 µM | SF-295 > 100 µM | SF-539 > 100 µM | SK-MEL-28 > 100 µM | SK-MEL-2 > 100 µM | SK-OV-3 > 100 µM | SN12C > 100 µM | SNB-19 > 100 µM | SNB-75 > 100 µM | SR > 100 µM | SW-620 > 100 µM | T47D > 100 µM | TK-10 > 100 µM | U-251 > 100 µM | UACC-257 > 100 µM | UACC-62 > 100 µM | UO-31 > 100 µM

Clc1ccc(Cl)c(Nc2ccnc(SCc3ccccc3)n2)c1
inactive: 786-0 > 100 µM | A498 > 100 µM | A549 > 100 µM | ACHN > 100 µM | BT-549 > 100 µM | CAKI-1 > 100 µM | CCRF-CEM > 100 µM | COLO 205 > 100 µM | DU-145 > 100 µM | EKVX 57.9 µM | HCT-116 > 100 µM | HOP-62 > 100 µM | HOP-92 > 100 µM | HT-29 69.8 µM | Hs-578T > 100 µM | IGROV-1 > 100 µM | K562 > 100 µM | KM12 > 100 µM | LOX IMVI 46.6 µM | M14 70 µM | MCF7 > 100 µM | MDA-MB-231 > 100 µM | MDA-MB-435 > 100 µM | MDA-N > 100 µM | MOLT-4 > 100 µM | Malme-3M > 100 µM | NCI-H23 > 100 µM | NCI-H460 54.8 µM | NCI-H522 84.9 µM | NCI/ADR-RES > 100 µM | OVCAR-3 > 100 µM | OVCAR-4 > 100 µM | OVCAR-5 > 100 µM | OVCAR-8 > 100 µM | PC-3 > 100 µM | RPMI-8226 99.8 µM | RXF 393 20.4 µM | SF-268 > 100 µM | SF-295 > 100 µM | SF-539 > 100 µM | SK-MEL-28 > 100 µM | SK-MEL-2 > 100 µM | SK-MEL-5 > 100 µM | SK-OV-3 > 100 µM | SN12C > 100 µM | SNB-19 > 100 µM | SNB-75 > 100 µM | SR > 100 µM | SW-620 > 100 µM | T47D 32.4 µM | TK-10 > 100 µM | U-251 > 100 µM | UACC-257 > 100 µM | UACC-62 > 100 µM | UO-31 > 100 µM
> 100 µM: HCT-15

CCOC(=O)N1CCN(c2c(N)nc(C)nc2O)CC1
> 100 µM: HCT-15
inactive: 786-0 > 100 µM | A498 > 100 µM | A549 > 100 µM | ACHN > 100 µM | BT-549 > 100 µM | CCRF-CEM > 100 µM | COLO 205 > 100 µM | DU-145 > 100 µM | EKVX > 100 µM | HCC 2998 > 100 µM | HCT-116 > 100 µM | HL-60 > 100 µM | HOP-62 > 100 µM | HOP-92 > 100 µM | HT-29 > 100 µM | Hs-578T > 100 µM | K562 > 100 µM | KM12 > 100 µM | LOX IMVI > 100 µM | M14 > 100 µM | MCF7 > 100 µM | MDA-MB-231 > 100 µM | MDA-MB-435 > 100 µM | MDA-N > 100 µM | MOLT-4 > 100 µM | Malme-3M > 100 µM | NCI-H226 > 100 µM | NCI-H23 > 100 µM | NCI-H460 > 100 µM | NCI-H522 > 100 µM | NCI/ADR-RES > 100 µM | OVCAR-3 > 100 µM | OVCAR-4 > 100 µM | OVCAR-5 > 100 µM | OVCAR-8 > 100 µM | PC-3 > 100 µM | RPMI-8226 > 100 µM | SF-268 > 100 µM | SF-295 > 100 µM | SF-539 > 100 µM | SK-MEL-28 > 100 µM | SK-MEL-2 > 100 µM | SN12C > 100 µM | SNB-19 > 100 µM | SNB-75 > 100 µM | SR > 100 µM | SW-620 > 100 µM | T47D > 100 µM | TK-10 > 100 µM | U-251 > 100 µM | UACC-257 > 100 µM | UO-31 > 100 µM

Cc1c2cccc-2ccc2c1[nH]c1ccc(Br)cc12
3.62 µM: HCT-15
inactive: 786-0 14.3 µM | A498 21.8 µM | A549 4.2 µM | ACHN 12.1 µM | BT-549 7.03 µM | CAKI-1 11.8 µM | CCRF-CEM 3.12 µM | COLO 205 2.06 µM | DU-145 10.9 µM | EKVX 1.78 µM | HCC 2998 15.2 µM | HCT-116 4.85 µM | HL-60 4.15 µM | HOP-62 6.43 µM | HOP-92 3.61 µM | HT-29 13.2 µM | Hs-578T 5.86 µM | IGROV-1 2.56 µM | K562 2.96 µM | KM12 2.47 µM | LOX IMVI 4.44 µM | M14 6.12 µM | MCF7 4.06 µM | MDA-MB-231 4.33 µM | MDA-MB-435 4.7 µM | MDA-N 6.32 µM | Malme-3M 9.86 µM | NCI-H226 2.04 µM | NCI-H23 6.44 µM | NCI-H460 4.56 µM | NCI-H522 2.48 µM | NCI/ADR-RES 9.59 µM | OVCAR-3 3.84 µM | OVCAR-4 1.96 µM | OVCAR-5 3.94 µM | OVCAR-8 7.36 µM | PC-3 4.18 µM | RPMI-8226 3.15 µM | SF-268 4.6 µM | SF-295 4.23 µM | SF-539 4.81 µM | SK-MEL-28 7.03 µM | SK-MEL-2 5.62 µM | SK-MEL-5 3.9 µM | SK-OV-3 14.7 µM | SN12C 12.9 µM | SNB-19 7.64 µM | SNB-75 2.21 µM | SR 3.04 µM | SW-620 4.75 µM | T47D 1.69 µM | TK-10 17.1 µM | U-251 3.21 µM | UACC-257 24.2 µM | UACC-62 13 µM | UO-31 4.65 µM

O=C1c2ccccc2-c2cc([N+](=O)[O-])c([N+](=O)[O-])cc21
inactive: 786-0 2.25 µM | A498 17.2 µM | A549 2.43 µM | ACHN 1.68 µM | BT-549 1.92 µM | CAKI-1 2.47 µM | COLO 205 2.11 µM | DU-145 1.77 µM | EKVX 2.04 µM | HCT-116 1.94 µM | HOP-62 1.58 µM | HOP-92 1.72 µM | HT-29 1.91 µM | Hs-578T 3.78 µM | IGROV-1 1.49 µM | K562 2.16 µM | KM12 1.61 µM | M14 1.77 µM | MCF7 1.38 µM | MDA-MB-231 1.8 µM | MDA-MB-435 1.65 µM | MDA-N 2.35 µM | Malme-3M 1.91 µM | NCI-H226 4.21 µM | NCI-H23 1.91 µM | NCI-H460 1.51 µM | NCI/ADR-RES 2.81 µM | OVCAR-4 1.81 µM | OVCAR-5 2.18 µM | OVCAR-8 1.64 µM | PC-3 1.55 µM | RXF 393 1.33 µM | SF-268 2.18 µM | SF-295 1.65 µM | SK-MEL-28 2.9 µM | SK-MEL-2 1.87 µM | SK-MEL-5 1.87 µM | SK-OV-3 2.66 µM | SN12C 1.86 µM | SNB-19 1.71 µM | SNB-75 1.82 µM | SW-620 1.58 µM | TK-10 1.48 µM | U-251 1.56 µM | UACC-257 1.41 µM | UACC-62 1.66 µM | UO-31 1.67 µM
1.78 µM: HCT-15
active: CCRF-CEM 0.243 µM | HL-60 0.564 µM | LOX IMVI 0.861 µM | MOLT-4 0.482 µM | NCI-H522 1.05 µM | RPMI-8226 1.04 µM | SF-539 0.485 µM | SR 0.13 µM | T47D 0.748 µM
